Laboratory results from patent publication US7786165B2, “Aminophenylpropanoic acid derivative” (Takeda Pharmaceutical Company Limited, priority 2004, dated 2010).
Where a name gives a salt, the structure may show the parent alone.

Target: T1, human GPR40 (Homo sapiens, UniProt O14842)
T1 construct: expressed in transfected cells; host or cells: CHO cell line stably expressing human GPR40
Test: Determination of EC50 for human GPR40: intracellular calcium change by FLIPR in CHO cells stably expressing human GPR40
Assay type: cell-based
Conditions: CHO cell line stably expressing human GPR40, changes in intracellular calcium concentration, Fluo3-AM, read-out: EC50 (Receptor Function Modulating Action On GPR40)
Experimental: Determination of EC50 of the Compound of the Present Invention for Human GPR40
For determination of EC50, CHO cell line that stably expressed human GPR40 was used. Unless otherwise indicated, the CHO cell line was cultured using α-MEM medium (Invitrogen) containing 10% fetal calf serum (Invitrogen).
The cells cultured to nearly confluent were rinsed with PBS (Invitrogen) on the previous day of the assay, peeled off with 0.05% Trypsin-EDTA solution (Invitrogen) and recovered by centrifugation. The number of the obtained cells was counted, and the cells were diluted such that 3×10^5 cells were contained per 1 mL of the medium, dispensed to a black welled 96-well plate (coster) by 100 μL per well and cultured overnight in a CO2 incubator. Various test compounds were added to the CHO cells thus prepared, and the changes in the intracellular calcium concentration were measured using FLIPR (Molecular Device). The below-mentioned pre-treatment was applied to measure changes in the intracellular calcium concentration by FLIPR.
First, an assay buffer for adding a fluorescence dye Fluo3-AM (DOJIN) to the cells, or for washing the cells immediately before FLIPR assay was prepared. To a solution of HBSS (Invitrogen, 1000 mL) to which 1M HEPES (pH 7.4, DOJIN, 20 mL) added (hereinafter HBSS/HEPES solution) was added a solution (10 mL) obtained by dissolving probenecid (Sigma, 710 mg) in 1N NaOH (5 mL), and adding and mixing an HBSS/HEPES solution (5 mL), and the resulting solution was used as an assay buffer. Next, Fluo3-AM (50 μg) was dissolved in dimethylsulfoxide (Wako, 21 μL), and an equivalent amount of 20% pluronic acid (Molecular Probes) was added and mixed. The solution was added to the assay buffer (10.6 mL) supplemented with fetal vovine serum (105 μL) to give a fluorescence dye solution. The medium of the CHO cells inoculated to the black welled 96-well plate on the previous day of assay was removed, the fluorescence dye solution was immediately dispensed by 100 μL per well and the cells were cultured in a CO2 incubator for 1 hr to allow intake of the fluorescence dye by the cells. The cells after the culture were washed with the above-mentioned assay buffer and set on FLIPR. The test compound was diluted with dimethylsulfoxide in advance, dispensed to polypropylene 96-well plate (sample plate) by […], and cryopreserved at −20° C. To the thawed sample plate was added an assay buffer containing 0.015% CHAPS (DOJIN) by 198 μL, and simultaneously set on FLIPR together with the cell plate. After the aforementioned pre-treatment, changes in the intracellular calcium concentration upon addition of various test compounds as measured by FLIPR. Based on the results, a dose-response curve of each test compound was formed and EC50 was calculated.

T1 sequence (O14842 whole entry): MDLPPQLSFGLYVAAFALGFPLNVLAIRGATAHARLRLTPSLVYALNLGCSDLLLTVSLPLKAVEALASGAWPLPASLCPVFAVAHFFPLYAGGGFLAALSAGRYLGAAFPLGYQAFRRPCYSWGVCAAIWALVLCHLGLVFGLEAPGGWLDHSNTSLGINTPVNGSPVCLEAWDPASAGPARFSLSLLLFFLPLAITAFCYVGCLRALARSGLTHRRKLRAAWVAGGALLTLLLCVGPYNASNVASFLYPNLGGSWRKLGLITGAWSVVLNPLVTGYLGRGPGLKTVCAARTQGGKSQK

Structure (SMILES)	EC50
Cc1ccc2ccccc2c1-c1cccc(CNc2ccc(CCC(=O)O)cc2)c1 [Example 26, 3-(4-{[3-(2-methyl-1-naphthyl)benzyl]amino}phenyl)propanoic acid hydrochloride]	< 0.1 µM
O=C(O)CCc1ccc(NCc2ccc(Cn3c(-c4ccccc4)cc4ccccc43)cc2)cc1 [Example 12, 3-[4-({4-[(2-phenyl-1H-indol-1-yl)methyl]benzyl}amino)phenyl]propanoic acid hydrochloride]	< 0.1 µM
O=C(O)CCc1ccc(NC2CCc3c(Oc4ccccc4)cccc32)cc1 (stereo not shown) [Example 212, 3-{4-[(4-phenoxy-2,3-dihydro-1H-inden-1-yl)amino]phenyl}propanoic acid]	< 0.1 µM
Cc1ccc(COc2ccc(CNc3ccc(CCC(=O)O)c(F)c3)cc2CC(C)C)cc1 [Example 131, 3-[2-fluoro-4-({3-isobutyl-4-[(4-methylbenzyl)oxy]benzyl}amino)phenyl]propanoic acid]	< 0.1 µM
O=C(O)CCc1ccc(NCc2ccc(CN(CCc3ccccc3)c3nc(-c4ccccc4)cs3)cc2)cc1 [Example 18, 3-{4-[(4-{[(2-phenylethyl)(4-phenyl-1,3-thiazol-2-yl)amino]methyl}benzyl)amino]phenyl}propanoic acid]	< 0.1 µM
Cc1cccc(C)c1-c1cccc2c1CCC2Nc1ccc(CCC(=O)O)c(F)c1 (stereo not shown) [Example 218, 3-(4-{[4-(2,6-dimethylphenyl)-2,3-dihydro-1H-inden-1-yl]amino}-2-fluorophenyl)propanoic acid]	< 0.1 µM
COc1cccc(Oc2cc(C)c(-c3cccc(CNc4ccc(CCC(=O)O)c(F)c4)c3)c(C)c2)n1 [Example 164, 3-{2-fluoro-4-[({4′-[(6-methoxypyridin-2-yl)oxy]-2′,6′-dimethylbiphenyl-3-yl}methyl)amino]phenyl}propanoic acid dihydrochloride]	< 0.1 µM
CC(C)(C)c1cc(-c2ccccc2)n(Cc2ccc(CNc3ccc(CCC(=O)O)c(F)c3)cc2)n1 [Example 107, 3-[4-({4-[(3-tert-butyl-5-phenyl-1H-pyrazol-1-yl)methyl]benzyl}amino)-2-fluorophenyl]propanoic acid]	< 0.1 µM
O=C(O)CCc1ccc(NC2CCc3cc(OCc4ccccc4)ccc32)cc1 (stereo not shown) [Example 210, 3-(4-{[5-(benzyloxy)-2,3-dihydro-1H-inden-1-yl]amino}phenyl)propanoic acid]	< 0.1 µM
Cc1cc(OS(C)(=O)=O)cc(C)c1-c1cccc(CNc2ccc(CCC(=O)O)c(F)c2)c1 [Example 123, 3-{4-[({2′,6′-dimethyl-4′-[(methylsulfonyl)oxy]biphenyl-3-yl}methyl)amino]-2-fluorophenyl}propanoic acid]	< 0.1 µM
Cc1cc(OCCCN2CCCC2=O)cc(C)c1-c1cccc(CNc2ccc(CCC(=O)O)c(F)c2)c1 [Example 149, 3-{4-[({2′,6′-dimethyl-4′-[3-(2-oxopyrrolidin-1-yl)propoxy]biphenyl-3-yl}methyl)amino]-2-fluorophenyl}propanoic acid benzenesulfonate]	< 0.1 µM
CC(C)(C)c1cc(CCc2ccccc2)n(Cc2ccc(CNc3ccc(CCC(=O)O)c(F)c3)cc2)n1 [Example 113, 3-{4-[(4-{[3-tert-butyl-5-(2-phenylethyl)-1H-pyrazol-1-yl]methyl}benzyl)amino]-2-fluorophenyl}propanoic acid methanesulfonate]	< 0.1 µM
O=C(O)CCc1ccc(NCc2ccc(Cn3nc(-c4ccccc4)cc3-c3ccccc3)cc2)cc1 [Example 44, 3-[4-({4-[(3,5-diphenyl-1H-pyrazol-1-yl)methyl]benzyl}amino)phenyl]propanoic acid]	< 0.1 µM
CCOCCOc1ccc(-c2cc(CNc3ccc(CCC(=O)O)c(F)c3)cc3c2OC(C)(C)C3)cc1 [Example 136, 3-{4-[({7-[4-(2-ethoxyethoxy)phenyl]-2,2-dimethyl-2,3-dihydro-1-benzofuran-5-yl}methyl)amino]-2-fluorophenyl}propanoic acid methanesulfonate]	< 0.1 µM
CC(C)COc1ccc(CNc2ccc(CCC(=O)O)cc2)cc1CN1c2ccccc2C=CC1(C)C [Example 138, 3-[4-({3-[(2,2-dimethylquinolin-1(2H)-yl)methyl]-4-isobutoxybenzyl}amino)phenyl]propanoic acid]	< 1 µM
Cc1cc(OCC2(C)COC2)cc(C)c1-c1cccc(CNc2ccc(CCC(=O)O)c(F)c2)c1 [Example 151, 3-{4-[({2′,6′-dimethyl-4′-[(3-methyloxetan-3-yl)methoxy]biphenyl-3-yl}methyl)amino]-2-fluorophenyl}propanoic acid methanesulfonate]	< 0.1 µM
CC(C)(C)c1cc(OCc2ccccc2)n(Cc2ccc(CNc3ccc(CCC(=O)O)c(F)c3)cc2)n1 [Example 171, 3-{4-[(4-{[5-(benzyloxy)-3-tert-butyl-1H-pyrazol-1-yl]methyl}benzyl)amino]-2-fluorophenyl}propanoic acid dimethanesulfonate]	< 0.1 µM
CCCN(Cc1ccc(CNc2ccc(CCC(=O)O)cc2)cc1)c1nc(-c2ccccc2)cs1 [Example 21, 3-{4-[(4-{[(4-phenyl-1,3-thiazol-2-yl)(propyl)amino]methyl}benzyl)amino]phenyl}propanoic acid]	< 0.1 µM
Cc1cc(OCC2(O)CCS(=O)(=O)CC2)cc(C)c1-c1cccc(CNc2ccc(CCC(=O)O)c(F)c2)c1 [Example 188, 3-{2-fluoro-4-[({4′-[(4-hydroxy-1,1-dioxidotetrahydro-2H-thiopyran-4-yl)methoxy]-2′,6′-dimethylbiphenyl-3-yl}methyl)amino]phenyl}propanoic acid]	< 0.1 µM

Other lines, results leading:

EC50	Structure (SMILES)
< 0.1 µM	CCN(CC)C(=O)COc1cc(C)c(-c2cccc(CNc3ccc(CCC(=O)O)c(F)c3)c2)c(C)c1 [Example 98, 3-{4-[({4′-[2-(diethylamino)-2-oxoethoxy]-2′,6′-dimethylbiphenyl-3-yl}methyl)amino]-2-fluorophenyl}propanoic acid]
< 0.1 µM	CCOCCOc1cc(C)c(-c2cccc(CNc3ccc4c(c3)OCC4CC(=O)O)c2)c(C)c1 (stereo not shown) [Example 86, [6-({[4′-(2-ethoxyethoxy)-2′,6′-dimethylbiphenyl-3-yl]methyl}amino)-2,3-dihydro-1-benzofuran-3-yl]acetic acid hydrochloride]
< 0.1 µM	CCOCCS(=O)(=O)c1cc(C)c(-c2cccc(CNc3ccc(CCC(=O)O)c(F)c3)c2)c(C)c1 [Example 184, 3-{4-[({4′-[(2-ethoxyethyl)sulfonyl]-2′,6′-dimethylbiphenyl-3-yl}methyl)amino]-2-fluorophenyl}propanoic acid]
< 0.1 µM	CCOCCOc1cc(C)c(-c2cccc(CNc3ccc(CCC(=O)O)cc3)c2)c(C)c1 [Example 37, 3-[4-({[4′-(2-ethoxyethoxy)-2′,6′-dimethylbiphenyl-3-yl]methyl}amino)phenyl]propanoic acid hydrochloride]
< 0.1 µM	CCS(=O)(=O)CCOc1cc(C)c(-c2cccc(CNc3ccc(CCC(=O)O)c(F)c3)c2)c(C)c1 [Example 146, 3-{4-[({4′-[2-(ethylsulfonyl)ethoxy]-2′,6′-dimethylbiphenyl-3-yl}methyl)amino]-2-fluorophenyl}propanoic acid methanesulfonate]
< 0.1 µM	CCOCCOc1cc(C)c(-c2cccc(CNc3ccc(CCC(=O)O)c(F)c3)c2)c(C)c1 [Example 40, 3-[4-({[4′-(2-ethoxyethoxy)-2′,6′-dimethylbiphenyl-3-yl]methyl}amino)-2-fluorophenyl]propanoic acid hydrochloride]
< 0.1 µM	Cc1cc(OCc2ccccc2)cc(C)c1-c1cccc(CNc2ccc(CCC(=O)O)cc2)c1 [Example 30, 3-[4-({[4′-(benzyloxy)-2′,6′-dimethylbiphenyl-3-yl]methyl}amino)phenyl]propanoic acid hydrochloride]
< 1 µM	Cc1cc(OCC(=O)O)cc(C)c1-c1cccc(CNc2ccc(CCC(=O)O)c(F)c2)c1 [Example 100, 3-[4-({[4′-(carboxymethoxy)-2′,6′-dimethylbiphenyl-3-yl]methyl}amino)-2-fluorophenyl]propanoic acid]
< 0.1 µM	CCN(CCOc1cc(C)c(-c2cccc(CNc3ccc(CCC(=O)O)c(F)c3)c2)c(C)c1)C(C)=O [Example 200, 3-(4-{[(4′-{2-[acetyl(ethyl)amino]ethoxy}-2′,6′-dimethylbiphenyl-3-yl)methyl]amino}-2-fluorophenyl)propanoic acid methanesulfonate]
